Source: ChEMBL document CHEMBL1201862, “PubChem BioAssay data set” (2004)
Calls of active or inactive are those of the source.

Tests used:
[1] = target: T1, Phosphomannomutase 2 (Homo sapiens, UniProt O15305); assay: Counter screen SAR assay for PMM2 inhibitors via a fluorescence intensity assay. [Related pubchem assays (depositor defined):AID1545, AID1574]
T1 sequence (O15305 whole entry): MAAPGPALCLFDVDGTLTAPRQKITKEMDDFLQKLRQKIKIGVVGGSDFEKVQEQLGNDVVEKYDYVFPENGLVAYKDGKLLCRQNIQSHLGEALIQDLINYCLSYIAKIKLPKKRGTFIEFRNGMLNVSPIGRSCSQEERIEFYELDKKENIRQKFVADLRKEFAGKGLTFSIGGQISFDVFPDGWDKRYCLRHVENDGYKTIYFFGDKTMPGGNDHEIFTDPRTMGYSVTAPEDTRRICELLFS

[2] = Luminescence Cell-Based Dose Response HTS to Identify Inhibitors of 5'UTR Stem-Loop Driven Prion Protein mRNA Translation in H4 Neuroglioblastoma Cells. [Related pubchem assays: 1827 (Project Summary), 1813 (Primary HTS)]; format: functional
[3] = target: T2, Mannose-6-phosphate isomerase (Homo sapiens, UniProt P34949); assay: PMI enzyme inhibitors, confirmation, biochemical, fluorescence intensity (AID 1535)
T2 sequence (P34949 whole entry): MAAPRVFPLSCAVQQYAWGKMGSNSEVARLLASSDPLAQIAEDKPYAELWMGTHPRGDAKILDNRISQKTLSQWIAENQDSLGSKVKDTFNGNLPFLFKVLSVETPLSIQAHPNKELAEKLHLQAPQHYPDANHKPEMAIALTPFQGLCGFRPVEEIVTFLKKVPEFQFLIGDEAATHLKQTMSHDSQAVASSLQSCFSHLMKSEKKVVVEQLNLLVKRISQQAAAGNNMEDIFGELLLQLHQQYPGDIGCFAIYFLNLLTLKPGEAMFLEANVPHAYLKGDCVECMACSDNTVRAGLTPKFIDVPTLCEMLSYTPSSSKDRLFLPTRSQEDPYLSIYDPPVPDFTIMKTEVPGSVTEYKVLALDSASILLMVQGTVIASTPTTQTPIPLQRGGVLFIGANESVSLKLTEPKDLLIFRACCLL

[4] = target: T3, Voltage-gated N-type calcium channel alpha-1B subunit/Amyloid beta A4 precursor protein-binding family A member 1 (Homo sapiens, UniProt Q00975+Q02410); format: protein assay
[5] = target: T3, Voltage-gated N-type calcium channel alpha-1B subunit/Amyloid beta A4 precursor protein-binding family A member 1; format: protein assay; remark: listed apart in the source
[6] = inhibitors of firefly luciferase expression or activity, dose response, H4 neuroglioma cells, luminescence (AID 1990); format: functional, cell-based
[7] = target: DNA dC->dU-editing enzyme APOBEC-3G (Homo sapiens, UniProt Q9HC16); assay: Dose Response confirmation of small molecule APOBEC3G DNA Deaminase Inhibitors via a fluorescence-based single-stranded DNA deaminase assay. [Related pubchem assays (depositor defined):AID493012, AID493028]; format: functional
[8] = target: Eukaryotic translation initiation factor 4E (Mus musculus, UniProt P63073); assay: eIF4E–eIF4G protein interaction inhibitors, dose response, biochemical, TR-FRET (AID 855); format: functional;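 also: potency for disrupting eIF4E binding to eIF4GI seen as loss of FRET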
[9] = inhibitors of SNCA 5'UTR-driven reporter translation, confirmation, H4 neuroglioma cells, luminescence (AID 1988); format: functional, cell-based
[10] = target: T4, Hexokinase HKDC1 (Homo sapiens, UniProt Q2TB90); assay: HKDC1 hexokinase activators, dose response, biochemical, W721R variant (AID 504730); format: functional
T4 sequence (Q2TB90 whole entry): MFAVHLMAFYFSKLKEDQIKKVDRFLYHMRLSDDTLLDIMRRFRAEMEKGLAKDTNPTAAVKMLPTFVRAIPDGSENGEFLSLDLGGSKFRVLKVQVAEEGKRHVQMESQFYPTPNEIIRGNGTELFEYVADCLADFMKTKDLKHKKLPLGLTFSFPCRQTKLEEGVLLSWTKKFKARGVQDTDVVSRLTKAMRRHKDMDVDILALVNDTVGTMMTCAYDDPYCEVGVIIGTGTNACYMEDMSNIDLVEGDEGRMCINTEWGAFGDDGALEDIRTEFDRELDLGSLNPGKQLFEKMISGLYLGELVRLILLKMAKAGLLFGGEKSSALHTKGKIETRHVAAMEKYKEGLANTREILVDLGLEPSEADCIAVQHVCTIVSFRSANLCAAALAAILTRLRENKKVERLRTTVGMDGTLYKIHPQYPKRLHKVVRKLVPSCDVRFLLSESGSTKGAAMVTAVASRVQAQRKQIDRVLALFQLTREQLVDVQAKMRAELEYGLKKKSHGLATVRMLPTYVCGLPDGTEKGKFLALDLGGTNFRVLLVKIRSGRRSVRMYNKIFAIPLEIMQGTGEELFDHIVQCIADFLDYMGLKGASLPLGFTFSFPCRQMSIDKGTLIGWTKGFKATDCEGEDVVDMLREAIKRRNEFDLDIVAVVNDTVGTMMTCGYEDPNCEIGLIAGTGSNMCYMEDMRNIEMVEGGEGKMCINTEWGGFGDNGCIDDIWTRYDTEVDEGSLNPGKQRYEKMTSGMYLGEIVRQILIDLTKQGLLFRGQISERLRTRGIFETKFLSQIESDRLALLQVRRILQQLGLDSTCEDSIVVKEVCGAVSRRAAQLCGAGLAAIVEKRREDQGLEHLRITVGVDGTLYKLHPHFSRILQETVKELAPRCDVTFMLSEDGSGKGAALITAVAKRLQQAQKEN

[11] = target: Hexokinase-1 (Homo sapiens, UniProt P19367); assay: hexokinase 1 activators, dose response, selectivity assay for HKDC1 activator project, biochemical (AID 504762); format: functional
[12] = target: T5, CAAX prenyl protease 2 (Homo sapiens, UniProt Q9Y256); assay: human Rce1 protease inhibitors, dose response, biochemical, yeast membranes, quenched-peptide fluorescence, cherry-pick (AID 588849)
T5 sequence (Q9Y256 whole entry): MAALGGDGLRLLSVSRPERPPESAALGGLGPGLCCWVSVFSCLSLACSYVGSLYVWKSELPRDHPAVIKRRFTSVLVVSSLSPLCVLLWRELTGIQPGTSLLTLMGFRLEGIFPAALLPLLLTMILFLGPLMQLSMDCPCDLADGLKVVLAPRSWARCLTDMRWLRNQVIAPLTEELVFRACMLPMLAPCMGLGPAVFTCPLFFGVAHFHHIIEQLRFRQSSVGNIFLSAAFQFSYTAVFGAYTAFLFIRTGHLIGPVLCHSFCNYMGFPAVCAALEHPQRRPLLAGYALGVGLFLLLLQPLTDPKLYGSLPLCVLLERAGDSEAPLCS

[13] = target: T6, CAAX prenyl protease 2 (Saccharomyces cerevisiae S288c, UniProt Q03530); format: biochemical
T6 sequence (Q03530 whole entry): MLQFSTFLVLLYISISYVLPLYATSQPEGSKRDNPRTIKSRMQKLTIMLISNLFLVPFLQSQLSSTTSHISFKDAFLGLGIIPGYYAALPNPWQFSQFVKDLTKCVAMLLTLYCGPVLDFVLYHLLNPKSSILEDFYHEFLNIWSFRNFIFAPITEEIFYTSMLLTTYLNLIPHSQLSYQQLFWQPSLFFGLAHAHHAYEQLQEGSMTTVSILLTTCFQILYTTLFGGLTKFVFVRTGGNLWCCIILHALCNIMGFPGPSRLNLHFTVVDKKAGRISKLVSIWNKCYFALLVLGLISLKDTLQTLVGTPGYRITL

[14] = mammalian cell cytotoxicity, dose response, cytotoxicity control, plate reader, cherry-pick samples (AID 504397); format: functional, cell-based
[15] = target: T7, Bcl-2-related protein A1 (Mus musculus, UniProt Q07440); format: functional;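 also: confirmatory dose–response counterscreen on Bfl-1, used to check hits from a UBC13 polyubiquitin inhibitor campaign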
T7 sequence (Q07440 whole entry): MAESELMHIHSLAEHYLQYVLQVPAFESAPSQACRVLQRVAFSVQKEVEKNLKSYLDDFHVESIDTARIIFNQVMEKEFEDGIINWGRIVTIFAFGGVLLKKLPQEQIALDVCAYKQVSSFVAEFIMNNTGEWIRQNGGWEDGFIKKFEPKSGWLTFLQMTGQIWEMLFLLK

[16] = target: T8, Ubiquitin-conjugating enzyme E2 N (Homo sapiens, UniProt P61088); format: functional
T8 sequence (P61088 whole entry): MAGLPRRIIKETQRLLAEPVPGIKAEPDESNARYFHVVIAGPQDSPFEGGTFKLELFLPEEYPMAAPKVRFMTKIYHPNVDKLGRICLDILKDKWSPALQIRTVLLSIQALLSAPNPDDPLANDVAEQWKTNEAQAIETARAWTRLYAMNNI

[17] = target: T8, Ubiquitin-conjugating enzyme E2 N; format: functional; remark: listed apart in the source
[18] = target: T9, Leucine aminopeptidase (Plasmodium falciparum 3D7, UniProt Q8IL11); assay: P. falciparum M17LAP inhibitors, primary screen, biochemical, fluorogenic H-Leu-NHMec substrate, 1536-well (AID 1619); format: functional
T9 sequence (Q8IL11 whole entry): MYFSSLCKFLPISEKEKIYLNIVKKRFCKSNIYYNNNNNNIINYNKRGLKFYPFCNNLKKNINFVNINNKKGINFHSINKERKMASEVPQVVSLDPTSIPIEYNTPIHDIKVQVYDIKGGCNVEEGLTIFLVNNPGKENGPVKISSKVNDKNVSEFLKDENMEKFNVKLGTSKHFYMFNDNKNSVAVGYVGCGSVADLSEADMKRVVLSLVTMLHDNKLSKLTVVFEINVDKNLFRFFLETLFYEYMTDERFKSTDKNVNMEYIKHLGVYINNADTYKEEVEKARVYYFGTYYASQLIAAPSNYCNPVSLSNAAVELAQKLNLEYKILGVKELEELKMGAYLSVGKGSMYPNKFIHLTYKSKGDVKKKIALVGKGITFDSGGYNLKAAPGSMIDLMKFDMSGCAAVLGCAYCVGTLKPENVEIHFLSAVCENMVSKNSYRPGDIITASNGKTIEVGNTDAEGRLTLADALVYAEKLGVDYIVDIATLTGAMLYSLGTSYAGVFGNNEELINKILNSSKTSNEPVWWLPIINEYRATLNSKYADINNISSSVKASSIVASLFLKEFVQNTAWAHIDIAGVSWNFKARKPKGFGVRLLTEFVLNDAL

[19] = target: Peroxisome proliferator-activated receptor gamma/Nuclear receptor coactivator 1 (Homo sapiens, UniProt P37231); assay: (§1) TR-FRET dose response biochemical High Throughput Screening assay for agonists of the steroid receptor coactivator 1 (SRC-1) recruitment by the peroxisome proliferator-activated receptor gamma (PPAR gamma): non-selective agonists. [Related pubchem assays (depositor defined):AID1300, AID1808, AID504735, AID631]; format: protein assay
[20] = target: Peroxisome proliferator-activated receptor gamma/Nuclear receptor coactivator 3 (Homo sapiens, UniProt P37231); assay: as §1, with “3 (SRC-3)” for “1 (SRC-1)”, “assays: 1301 (Confirmation screen.), 1048 (Primary screen.)]” for “assays (depositor defined):AID1300, AID1808, AID504735, AID631]”; format: functional
[21] = target: Peroxisome proliferator-activated receptor gamma/Nuclear receptor coactivator 2 (Homo sapiens, UniProt P37231); assay: TR-FRET dose response biochemical High Throughput Screening assay for agonists of the steroid receptor coactivator 2 (SRC-2) recruitment by the peroxisome proliferator-activated receptor gamma (PPAR gamma): non-selective agonists. [Related pubchem assays: 1297, 1032 ]; format: functional
[22] = target: Intestinal-type alkaline phosphatase (Homo sapiens, UniProt P09923); assay: activation of human intestinal alkaline phosphatase – biochemical, dose response (AID 488873); format: functional
[23] = target: T10, Alkaline phosphatase, tissue-nonspecific isozyme (Homo sapiens, UniProt P05186); assay: TNAP enzyme activators, dose response, selectivity assay for mouse IAP activator project, biochemical, TNAP isozyme, mouse IAP uHTS hits (AID 488880); format: functional
T10 sequence (P05186 whole entry): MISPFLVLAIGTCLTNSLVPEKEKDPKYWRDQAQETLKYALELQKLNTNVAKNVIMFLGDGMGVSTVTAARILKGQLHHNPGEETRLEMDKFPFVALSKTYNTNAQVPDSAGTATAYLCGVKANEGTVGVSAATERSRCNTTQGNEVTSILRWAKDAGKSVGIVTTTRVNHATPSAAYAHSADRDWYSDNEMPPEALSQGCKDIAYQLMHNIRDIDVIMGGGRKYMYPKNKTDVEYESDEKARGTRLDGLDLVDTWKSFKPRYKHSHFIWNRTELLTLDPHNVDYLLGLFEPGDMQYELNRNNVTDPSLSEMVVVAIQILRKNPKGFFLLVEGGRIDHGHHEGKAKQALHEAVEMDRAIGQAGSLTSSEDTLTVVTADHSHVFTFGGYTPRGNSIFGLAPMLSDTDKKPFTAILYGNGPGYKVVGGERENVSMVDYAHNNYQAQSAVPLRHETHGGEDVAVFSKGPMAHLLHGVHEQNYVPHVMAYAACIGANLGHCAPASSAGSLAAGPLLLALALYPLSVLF

[24] = target: Intestinal-type alkaline phosphatase (Mus musculus, UniProt P24822); assay: mouse intestinal alkaline phosphatase activators, dose response, biochemical, luminescence, uHTS hits (AID 488783); format: functional

T3 sequence (Q00975 whole entry): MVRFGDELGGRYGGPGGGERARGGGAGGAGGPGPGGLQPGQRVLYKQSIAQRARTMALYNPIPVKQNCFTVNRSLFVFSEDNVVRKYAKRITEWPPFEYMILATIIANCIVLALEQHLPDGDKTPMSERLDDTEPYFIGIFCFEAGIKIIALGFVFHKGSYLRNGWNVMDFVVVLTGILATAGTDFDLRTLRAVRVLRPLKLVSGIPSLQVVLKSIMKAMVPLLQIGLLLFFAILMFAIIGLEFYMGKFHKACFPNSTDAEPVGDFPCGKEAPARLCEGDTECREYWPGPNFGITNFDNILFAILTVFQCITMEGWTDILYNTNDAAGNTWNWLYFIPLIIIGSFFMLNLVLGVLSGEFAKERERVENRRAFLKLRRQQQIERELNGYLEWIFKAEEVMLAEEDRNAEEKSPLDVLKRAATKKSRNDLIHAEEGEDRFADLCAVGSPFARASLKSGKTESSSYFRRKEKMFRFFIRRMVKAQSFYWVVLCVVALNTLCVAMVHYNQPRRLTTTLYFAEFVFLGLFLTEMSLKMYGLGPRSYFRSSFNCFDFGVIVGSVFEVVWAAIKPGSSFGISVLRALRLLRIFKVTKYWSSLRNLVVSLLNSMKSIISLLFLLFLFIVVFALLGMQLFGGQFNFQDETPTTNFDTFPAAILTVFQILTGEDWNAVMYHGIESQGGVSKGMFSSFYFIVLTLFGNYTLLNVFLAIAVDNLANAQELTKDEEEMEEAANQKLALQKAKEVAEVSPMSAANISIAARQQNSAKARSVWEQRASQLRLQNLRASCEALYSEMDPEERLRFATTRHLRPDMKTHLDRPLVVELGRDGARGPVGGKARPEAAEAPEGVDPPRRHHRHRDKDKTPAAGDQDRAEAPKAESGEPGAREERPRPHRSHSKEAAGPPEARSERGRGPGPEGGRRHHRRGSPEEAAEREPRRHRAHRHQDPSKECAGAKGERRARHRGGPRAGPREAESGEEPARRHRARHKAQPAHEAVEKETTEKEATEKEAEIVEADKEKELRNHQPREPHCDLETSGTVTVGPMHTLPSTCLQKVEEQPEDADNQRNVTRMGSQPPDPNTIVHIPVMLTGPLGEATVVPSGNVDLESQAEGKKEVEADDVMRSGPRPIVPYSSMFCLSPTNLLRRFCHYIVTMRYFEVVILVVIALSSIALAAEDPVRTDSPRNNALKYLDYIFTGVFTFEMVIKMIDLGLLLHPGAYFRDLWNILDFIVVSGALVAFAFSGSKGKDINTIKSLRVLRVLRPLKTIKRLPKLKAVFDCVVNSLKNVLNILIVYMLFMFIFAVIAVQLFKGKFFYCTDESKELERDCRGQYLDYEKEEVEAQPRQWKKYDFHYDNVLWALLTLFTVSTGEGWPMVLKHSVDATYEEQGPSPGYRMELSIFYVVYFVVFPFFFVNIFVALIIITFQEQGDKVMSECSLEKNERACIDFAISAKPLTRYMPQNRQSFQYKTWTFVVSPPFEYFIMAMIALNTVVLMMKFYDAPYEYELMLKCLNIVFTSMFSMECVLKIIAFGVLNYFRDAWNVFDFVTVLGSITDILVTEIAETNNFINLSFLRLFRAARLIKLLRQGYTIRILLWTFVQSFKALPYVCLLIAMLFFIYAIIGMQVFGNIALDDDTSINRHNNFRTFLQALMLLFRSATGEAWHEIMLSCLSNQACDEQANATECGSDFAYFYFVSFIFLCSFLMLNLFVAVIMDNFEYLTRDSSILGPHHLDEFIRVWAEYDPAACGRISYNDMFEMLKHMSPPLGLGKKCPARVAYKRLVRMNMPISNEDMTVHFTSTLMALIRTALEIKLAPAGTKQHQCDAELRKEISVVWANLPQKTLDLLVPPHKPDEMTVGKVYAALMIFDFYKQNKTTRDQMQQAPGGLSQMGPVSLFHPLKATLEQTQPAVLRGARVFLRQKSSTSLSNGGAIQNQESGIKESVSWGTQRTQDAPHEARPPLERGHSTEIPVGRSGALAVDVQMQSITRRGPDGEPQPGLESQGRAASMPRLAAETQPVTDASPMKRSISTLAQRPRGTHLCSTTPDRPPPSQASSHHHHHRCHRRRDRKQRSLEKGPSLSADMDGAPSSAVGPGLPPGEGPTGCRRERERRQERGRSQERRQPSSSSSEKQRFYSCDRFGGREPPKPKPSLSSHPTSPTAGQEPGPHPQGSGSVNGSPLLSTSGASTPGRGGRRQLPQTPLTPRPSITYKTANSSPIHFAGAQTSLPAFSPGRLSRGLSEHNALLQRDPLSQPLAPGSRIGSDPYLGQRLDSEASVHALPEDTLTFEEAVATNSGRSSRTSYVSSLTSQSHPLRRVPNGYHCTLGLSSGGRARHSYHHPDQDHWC
T3 sequence (Q02410 whole entry): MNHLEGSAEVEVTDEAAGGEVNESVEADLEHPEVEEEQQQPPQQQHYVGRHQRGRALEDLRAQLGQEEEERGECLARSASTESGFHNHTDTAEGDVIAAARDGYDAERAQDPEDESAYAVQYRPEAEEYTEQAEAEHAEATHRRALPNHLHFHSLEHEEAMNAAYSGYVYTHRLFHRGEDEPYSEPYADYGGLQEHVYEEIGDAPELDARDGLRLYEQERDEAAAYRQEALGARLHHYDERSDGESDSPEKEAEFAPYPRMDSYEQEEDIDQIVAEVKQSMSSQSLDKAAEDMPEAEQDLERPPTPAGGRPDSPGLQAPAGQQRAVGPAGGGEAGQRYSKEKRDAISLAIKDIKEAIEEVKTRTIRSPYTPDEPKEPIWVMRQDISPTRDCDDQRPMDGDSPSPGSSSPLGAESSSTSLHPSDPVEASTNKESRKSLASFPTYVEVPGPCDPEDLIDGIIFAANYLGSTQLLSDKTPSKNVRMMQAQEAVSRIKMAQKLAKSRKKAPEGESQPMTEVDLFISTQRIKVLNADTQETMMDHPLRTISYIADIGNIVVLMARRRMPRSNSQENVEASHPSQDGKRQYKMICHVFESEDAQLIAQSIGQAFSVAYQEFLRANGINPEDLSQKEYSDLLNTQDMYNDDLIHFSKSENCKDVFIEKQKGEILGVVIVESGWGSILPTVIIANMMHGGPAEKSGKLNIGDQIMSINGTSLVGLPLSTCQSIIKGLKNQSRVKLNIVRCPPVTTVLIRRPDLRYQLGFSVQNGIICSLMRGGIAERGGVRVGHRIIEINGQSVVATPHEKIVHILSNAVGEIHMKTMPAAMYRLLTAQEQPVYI
Sequence of Peroxisome proliferator-activated receptor gamma/Nuclear receptor coactivator 1 (P37231 whole entry): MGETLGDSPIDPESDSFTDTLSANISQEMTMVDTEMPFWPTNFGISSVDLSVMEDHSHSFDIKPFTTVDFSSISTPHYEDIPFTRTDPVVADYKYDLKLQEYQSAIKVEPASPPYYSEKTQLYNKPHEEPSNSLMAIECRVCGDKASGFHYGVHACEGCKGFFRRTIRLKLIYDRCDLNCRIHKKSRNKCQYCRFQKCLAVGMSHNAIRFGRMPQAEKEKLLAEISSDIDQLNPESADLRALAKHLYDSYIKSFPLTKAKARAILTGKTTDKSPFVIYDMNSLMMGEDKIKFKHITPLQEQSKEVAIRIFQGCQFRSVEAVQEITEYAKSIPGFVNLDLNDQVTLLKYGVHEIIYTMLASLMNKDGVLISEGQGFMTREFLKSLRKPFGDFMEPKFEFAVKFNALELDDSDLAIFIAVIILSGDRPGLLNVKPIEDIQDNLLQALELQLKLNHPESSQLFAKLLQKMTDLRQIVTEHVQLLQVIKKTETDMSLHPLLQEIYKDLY
Sequence of Peroxisome proliferator-activated receptor gamma/Nuclear receptor coactivator 1 (Q15788 whole entry, further chain): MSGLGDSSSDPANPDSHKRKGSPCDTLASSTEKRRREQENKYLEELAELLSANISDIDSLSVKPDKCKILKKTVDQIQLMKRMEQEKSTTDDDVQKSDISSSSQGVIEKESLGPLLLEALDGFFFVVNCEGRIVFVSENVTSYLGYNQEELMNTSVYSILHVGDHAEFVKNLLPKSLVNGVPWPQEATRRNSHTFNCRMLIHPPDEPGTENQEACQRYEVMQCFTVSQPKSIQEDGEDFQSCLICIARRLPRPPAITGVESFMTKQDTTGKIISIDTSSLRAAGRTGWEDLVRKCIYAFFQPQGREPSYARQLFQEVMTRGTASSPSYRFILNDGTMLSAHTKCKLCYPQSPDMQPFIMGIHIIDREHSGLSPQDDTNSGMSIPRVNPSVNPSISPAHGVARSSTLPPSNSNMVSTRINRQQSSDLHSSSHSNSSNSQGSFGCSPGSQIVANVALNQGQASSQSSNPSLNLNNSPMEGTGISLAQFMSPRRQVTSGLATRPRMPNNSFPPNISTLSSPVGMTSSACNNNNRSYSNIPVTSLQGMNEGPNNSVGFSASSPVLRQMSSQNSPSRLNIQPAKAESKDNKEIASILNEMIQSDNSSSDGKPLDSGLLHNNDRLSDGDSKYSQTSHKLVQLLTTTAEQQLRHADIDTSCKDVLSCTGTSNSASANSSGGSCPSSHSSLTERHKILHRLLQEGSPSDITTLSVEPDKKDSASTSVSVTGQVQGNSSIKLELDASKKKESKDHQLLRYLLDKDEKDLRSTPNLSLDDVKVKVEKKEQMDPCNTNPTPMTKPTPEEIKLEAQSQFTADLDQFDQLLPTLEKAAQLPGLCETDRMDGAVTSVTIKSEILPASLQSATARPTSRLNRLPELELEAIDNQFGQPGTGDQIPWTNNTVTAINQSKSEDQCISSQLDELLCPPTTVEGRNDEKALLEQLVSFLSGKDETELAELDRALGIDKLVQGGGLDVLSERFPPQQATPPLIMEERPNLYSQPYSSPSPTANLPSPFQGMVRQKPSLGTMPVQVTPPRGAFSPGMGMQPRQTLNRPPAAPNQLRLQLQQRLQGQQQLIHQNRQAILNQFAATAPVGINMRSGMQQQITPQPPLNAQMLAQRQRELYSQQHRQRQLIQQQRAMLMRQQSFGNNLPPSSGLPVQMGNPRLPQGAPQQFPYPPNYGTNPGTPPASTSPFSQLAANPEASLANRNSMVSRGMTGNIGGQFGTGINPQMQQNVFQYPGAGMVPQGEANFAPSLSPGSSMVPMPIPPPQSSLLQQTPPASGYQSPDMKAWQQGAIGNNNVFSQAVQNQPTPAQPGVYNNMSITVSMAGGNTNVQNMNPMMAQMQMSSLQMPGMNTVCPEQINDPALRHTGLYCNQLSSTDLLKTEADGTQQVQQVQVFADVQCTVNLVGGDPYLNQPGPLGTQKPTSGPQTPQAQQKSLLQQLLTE

Structure (SMILES): Cc1ccc(/N=c2\ssnc2Cl)cc1
- IC50 [1]: > 100 µM (inactive)
- EC50 [2]: > 120 µM (not active)
- IC50 [3]: 18.6 µM (active)
- IC50 [4]: 2.85 µM (active)
- IC50 [5]: 9.27 µM (active)
- EC50 [6]: > 120 µM (not active)
- IC50 [7]: 10.2 µM (active)
- IC50 [8]: 35.4 µM (inactive)
- EC50 [9]: > 120 µM (not active)
- EC50 [10]: 59 µM (inactive)
- EC50 [11]: 53.2 µM (inactive)

Structure (SMILES): Cc1cccc(OCCN2C(=O)C(=O)c3cc(C)ccc32)c1
- AC50 [12]: 18.1 µM (active)
- AC50 [13]: 1.11 µM (active)
- AC50 [14]: 73.6 µM (active)

Structure (SMILES): CC(C)C[C@H](N)c1cn([C@@H](Cc2cc3ccccc3[nH]2)C(=O)N2CCNCC2)nn1
- IC50 [15]: > 20 µM (inactive)
- IC50 [16]: 15.8 µM (active)
- IC50 [17]: 14 µM (active)

Structure (SMILES): CCOC(=O)c1c(-c2cccs2)csc1NC(=O)CCCC(=O)O
- IC50 [18]: 20.3 µM (active)
- EC50 [19]: 69.1 µM (inactive)
- EC50 [20]: > 79.4 µM (not active)
- EC50 [21]: 39.6 µM (not active)

Structure (SMILES): Cc1ccc(NC(=O)CCNS(=O)(=O)c2ccc3[nH]c(=O)oc3c2)cc1F
- EC50 [22]: > 100 µM (inactive)
- EC50 [23]: > 100 µM (inactive)
- EC50 [24]: 1.76 µM (active)
